Type in all cases: in vivo
In one assay the test system is gastric motility. Briefly: Gastric Motility Testing in the Rat (reversal of the inhibition effect of 6,7-ADTN). The following applies: conscious chronic gastric fistula rat; for reversal of the reduction of basal gastric motor activity by 6,7-ADTN: 10 minutes after 6,7-ADTN 1 mg/kg s.c. How it is done: The compounds were tested for ability to reverse the inhibition effect of 6,7-ADTN on gastric motility recorded by an open tipped catheter in the conscious chronic gastric fistula rat. […] For subcutaneous testing the compounds were dissolved in water by the addition of tartaric acid (1/2 mole per mole of compound).

The subject of the next assay is dopamine receptor. Briefly: Inhibition of Apomorphine Induced Climbing in the Mouse. Particulars: for Activity % Inhibition: apomorphine induced climbing, apomorphine 1 mg/kg s.c., orally 30 min prior. The protocol: The compound prepared in Example 3 was tested for inhibition of apomorphine induced climbing behaviour in the mouse. This is indicative of dopamine receptor blockade in the central nervous system.
The test is based on that described by Protais, P., Constantin, J. and Schwartz, J. C. (1976), Psychopharmacology, 50, 1-6.
Apomorphine 1 mg/kg s.c. induces mice to climb the wall of a wire cage (inverted food hopper--11×7.5×18 cm high). Mice acclimatised in their home cages in groups of 5 are placed under the hoppers immediately after the injection of apomorphine 1 mg/kg s.c. At 10,20 and 30 minutes after injection climbing behaviour is scored. The mice are observed for 30 seconds and scored according to the position they spend the majority of time in, score 0--four paws on floor of cage; score 1--fore paws only on walls; score 2--all paws on wall of cage. The scores at all 3 times and for each mouse are summed and mice drug treated orally 30 min. prior to apomorphine compared to mice receiving apomorphine only. A saline only treated group is also included and any score, generally 5% of maximum taken into account.

In another assay the test system is vomiting response. Briefly: Anti-emetic Activity in the Dog (apomorphine HCl vomiting response). Particulars: Canis lupus familiaris, 0.5 h; s.c., 30 minutes prior to apomorphine HCl 0.1 mg/kg subcutaneously; read-out: dose that totally inhibited the vomiting response. The protocol:
Compounds were administered subcutaneously 30 minutes, or per os 2 hr, prior to administration of a standard dose of apomorphine HCl (0.1 mg/kg subcutaneously) and the vomiting response compared to that obtained when the same animals were dosed with apomorphine HCl and vehicle only.

Consider `NC1CCc2cc(O)c(O)cc2C1` (stereo not drawn) [6,7-ADTN, reference compound], for which the “basal gastric motor activity” value in the assay on gastric motility (6,7-ADTN 1 mg/kg s.c.) is “reduced basal gastric motor activity”.

For the compound `COc1ccc(NC(=O)[C@@H]2C[C@H]3CC[C@@H](C2)N3Cc2ccccc2)c(OC)c1` [Compound 20, 3-methoxy-4-[8'-benzyl-8'-azabicyclo[3.2.1]octane-3β'-carboxamido]anisole], the “Activity % Inhibition” value in the assay on dopamine receptor (compound dose 10 mg/kg) is 100%.

Consider `COc1ccc(OC)c(NC(=O)[C@@H]2C[C@H]3CC[C@@H](C2)N3Cc2ccccc2)c1` [Compound 21, 4-methoxy-2-(8'-benzyl-8'-azabicyclo[3.2.1]octane-3β-carboxamido)anisole], for which the “Activity % Inhibition” value in the assay on dopamine receptor (compound dose 2 mg/kg) is recorded as 60%.

Turning to `COc1ccc(S(C)(=O)=O)cc1NC(=O)[C@@H]1C[C@H]2CC[C@@H](C1)N2Cc1ccccc1` [Compound 24, 4-methylsulphonyl-2-(8'-benzyl-8'-azabicyclo[3,2,1]octane-3'β-carboxamido)anisole], the ED100 in the assay with vomiting response was 0.1 mg/kg. Besides, the “reversal of the reduction of basal gastric motor activity by 6,7-ADTN” value with gastric motility (compound 1 mg/kg s.c.) is listed as “reversed”.

For `COc1ccc(S(N)(=O)=O)cc1NC(=O)[C@@H]1C[C@H]2CC[C@@H](C1)N2Cc1ccccc1` [Compound 25, 4-aminosulphonyl-2-(8'benzyl-8'-azabicyclo[3.2.1]octane-3'β-carboxamido)anisole], in the assay with gastric motility (compound 5 mg/kg s.c.), the “reversal of the reduction of basal gastric motor activity by 6,7-ADTN” value was “reversed”.

Broadly, the ED50 is the midpoint of the dose-response relation. A lower ED50 goes with greater potency. Take `COc1cc(N)c(Cl)cc1NC(=O)[C@@H]1C[C@H]2CC[C@@H](C1)N2Cc1ccccc1` [Compound 44, 5-Amino-4-chloro-2-[8'-benzyl-8'-azabicyclo-[3.2.1]octane-3'β-carboxamido]-anisole]: the “Activity % Inhibition” value in the assay on dopamine receptor (compound dose 1 mg/kg) turned out to be 100%. Further, the ED50 with dopamine receptor (inhibition of apomorphine induced climbing, orally 30 min prior to apomorphine 1 mg/kg s.c.) is reported as 0.05 mg/kg.

Take `COc1cc(N)c(Cl)cc1NC(=O)[C@@H]1C[C@H]2CC[C@@H](C1)N2Cc1ccc(Cl)c(Cl)c1` [Compound 45, 5-amino-4-chloro-2-(8'-[3",4"-dichlorobenzyl]-8'-azabicyclo[3.2.1]octane-3β'-carboxamido)anisole]: in the assay on dopamine receptor (compound dose 10 mg/kg), the “Activity % Inhibition” value came to 100%.

Turning to `COc1cc(N)c(Cl)cc1NC(=O)[C@@H]1C[C@H]2CC[C@@H](C1)N2Cc1ccc(Cl)cc1` [Compound 46, 5-amino-4-chloro-2-(8'-(4"-chlorobenzyl)-8'-azabicyclo [3.2.1]octane-3'β-carboxamido)anisole], the “Activity % Inhibition” value in the assay with dopamine receptor (compound dose 10 mg/kg) was 100%.

As to `COc1cc(N)c(Cl)cc1NC(=O)[C@@H]1C[C@H]2CC[C@@H](C1)N2Cc1ccc(C)cc1` [Compound 47, 5-amino-4-chloro-2-(8'-[4"-methylbenzyl]-8'-azabicyclo [3.2.1]octane-3'β-carboxamido)anisole], the “Activity % Inhibition” value in the assay with dopamine receptor (compound dose 10 mg/kg) stood at 100%.

For `COc1ccc(CN2[C@@H]3CC[C@H]2C[C@H](C(=O)Nc2cc(Cl)c(N)cc2OC)C3)cc1` [Compound 48, 5-amino-4-chloro-2-(8'-[4"-methoxybenzyl]-8'-azabicyclo [3.2.1]octane-3'β-carboxamido)anisole], the “Activity % Inhibition” value in the assay on dopamine receptor (compound dose 10 mg/kg) was 100%.

Consider `COc1cc(N)c(Cl)cc1NC(=O)[C@@H]1C[C@H]2CC[C@@H](C1)N2CCC(C)C` [Compound 53, 5-amino-4-chloro-2-(8'-3"-methylbutyl-8'-azabicyclo [3.2.1]octane-3'β-carboxamido)anisole], for which the “Activity % Inhibition” value in the assay with dopamine receptor (compound dose 10 mg/kg) is reported as 56%.

Regarding `COc1cc(N)c(Cl)cc1NC(=O)[C@@H]1C[C@H]2CC[C@@H](C1)N2CC1CCCCC1` [Compound 55, 5-amino-4-chloro-2-(8'-cyclohexylmethyl-8'-azabicyclo [3.2.1]octane-3'β-carboxamido)anisole], in the assay with dopamine receptor (compound dose 50 mg/kg), the “Activity % Inhibition” value came out at 100%.

For the compound `COc1cc(NC(C)=O)c(Cl)cc1NC(=O)[C@@H]1C[C@H]2CC[C@@H](C1)N2Cc1ccccc1` [Compound 62, 5-Acetamido-4-chloro-2-[8-benzyl-8-azabicyclo (3,2,1)acetone-3β-carboxamido]anisole], the “Activity % Inhibition” value in the assay on dopamine receptor (compound dose 2 mg/kg) stood at 95%.

These data come from patent publication US4350691A, “Certain azabicyclocarboxamides and compositions containing same” (Beecham Group Limited, priority 1979, dated 1982).
